Measured values as given in patent publication EP4729519A1, “CRYSTAL FORM OF ENPP1 INHIBITOR” (CSPC Zhongqi Pharmaceutical Technology (Shijiazhuang) Co., …, priority 2023, dated 2024).
Like-named read-outs stand apart in the source and are kept apart here.

Tests used:
hENPP1 enzyme = target: T1, hENPP1 enzyme (Homo sapiens, UniProt P22413); test: ENPP1 enzymatic inhibition test in vitro (TMP-pNP hydrolysis, OD405); type: biochemical; conditions: TMP-pNP substrate, pH 9.5, 37 °C, 0.5 h
T1 sequence (P22413 1-925): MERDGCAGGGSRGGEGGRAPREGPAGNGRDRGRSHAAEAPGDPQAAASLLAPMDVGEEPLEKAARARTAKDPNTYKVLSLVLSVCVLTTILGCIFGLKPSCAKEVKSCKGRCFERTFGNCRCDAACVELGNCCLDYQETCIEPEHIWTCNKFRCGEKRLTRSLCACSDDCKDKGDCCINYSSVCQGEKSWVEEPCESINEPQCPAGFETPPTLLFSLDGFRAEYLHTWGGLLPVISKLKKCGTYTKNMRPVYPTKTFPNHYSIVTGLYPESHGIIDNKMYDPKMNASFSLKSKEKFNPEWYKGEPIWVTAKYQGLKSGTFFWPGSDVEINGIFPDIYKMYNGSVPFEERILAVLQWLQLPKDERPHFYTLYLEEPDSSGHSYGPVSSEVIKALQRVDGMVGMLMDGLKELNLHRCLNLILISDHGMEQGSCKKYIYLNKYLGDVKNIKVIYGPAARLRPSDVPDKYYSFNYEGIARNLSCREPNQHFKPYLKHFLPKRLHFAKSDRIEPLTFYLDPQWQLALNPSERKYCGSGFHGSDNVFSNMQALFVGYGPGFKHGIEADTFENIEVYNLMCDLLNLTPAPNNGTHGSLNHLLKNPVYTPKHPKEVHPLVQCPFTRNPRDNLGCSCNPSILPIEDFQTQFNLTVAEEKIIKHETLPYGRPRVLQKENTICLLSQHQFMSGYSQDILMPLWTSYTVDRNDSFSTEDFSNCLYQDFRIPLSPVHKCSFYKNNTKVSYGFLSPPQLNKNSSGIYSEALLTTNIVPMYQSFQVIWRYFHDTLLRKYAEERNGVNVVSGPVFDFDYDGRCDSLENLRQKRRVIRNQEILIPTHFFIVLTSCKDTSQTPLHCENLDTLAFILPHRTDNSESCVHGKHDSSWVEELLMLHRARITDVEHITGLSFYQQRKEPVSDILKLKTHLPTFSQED
From the text: ENPP1 is a transmembrane glycoprotein capable of hydrolyzing nucleotides and derivatives with nucleotide-5'-monophosphate structures. ENPP1 is capable of hydrolyzing artificially synthesized 5'-p-nitrophenyl monophosphate (TMP-pNP) into nucleotide 5'-monophosphate and p-nitrophenol, while p-nitrophenol is a chromogenic product. The production amount of p-nitrophenol product can be directly measured by its absorbance at 405 nm, which is directly proportional to the enzyme activity.
100X serial gradient dilutions of compound were prepared with DMSO, starting from a stock concentration of 1 mM, and using a 4-fold serial gradient dilution to make 10 concentration points. 300 Nanoliter of compounds at gradient concentrations were transferred to a 384-well assay plate (final concentration: starting at 10 µM, 4-fold serial gradient dilution, 10 concentration points) by using Echo. First, 15 µL of 0.2 ng/uL hENPP1 enzyme (2× final concentration) prepared in an assay buffer (250 mM NaCl, 50 mM Tris, pH = 9.5) was added to each well. […] After incubation at 37 °C for 0.5 h, the OD405 nm value was read by the microplate reader. The percentage of inhibition rate was calculated using the formula: %Inhibition Rate=(ODhigh signal control - ODsample well) / (ODhigh signal control - ODlow signal control)*100. The IC50 value was calculated using four-parameter fitting. […]

[1] = Pharmacokinetic test in mice, plasma concentration by LC-MS/MS; type: in vivo, CD-1 male mice; conditions: male, CD-1, mouse; for AUC(0-t): read-out: AUC0-24h
[2] = test system: pancreatic cancer Pan02 cells; test: Mouse subcutaneous homograft tumour model of pancreatic cancer Pan02; type: in vivo, C57BL/6 mice; conditions: 20 mg/kg oral gavage twice daily
Protocol: • 1. Experimental Objective: The in vivo efficacy of the test drug in the mouse subcutaneous homograft tumour model of pancreatic cancer Pan02 cells was evaluated. • 2. Experimental Methods • 2.1 Cell Culture Mouse pancreatic cancer Pan02 cells were cultured in monolayer in vitro in DMEM medium supplemented with 10% fetal bovine serum, 0.01 mg/mL sinsulin, 1% penicillin/streptomycin/amphotericin B in an incubator at 37 °C with 5% CO2. When the cell saturation was 80%-90% and the number reached the requirement, the cells were harvested, counted, and inoculated. • 2.2 Animals C57BL/6 mice, female, 6-8 weeks old, weighing 18-22 g. The mice were provided by Shanghai Xipu-Bikai Laboratory Animal Co., Ltd., or other suppliers. • 2.3 Tumour Inoculation and Animal Grouping and administration 0.1 Milliliter of Pan02 cells (5×10^6 cells) were inoculated subcutaneously into the right hind back of each mouse, and animal grouping and administration began when the average tumour volume reached about 100-200 mm^3. Animals were weighed and tumour volumes were measured before administration. Mice were randomly divided into groups based on the tumour volume, with 8 mice in each group. […] Tumor volume was calculated using the formula: V=0.5a×b^2, where a and b represented the long and short diameters of the tumour, respectively. […]

[3] = test system: C57 BL/6 mouse model of myocardial ischemia; test: Mouse myocardial ischemia model (LAD ligation), echocardiography and Masson staining; type: in vivo; conditions: mice; for reduction of the degree of fibrosis compared with the vehicle control group: Masson staining; for increase of left ventricular ejection fraction (LVEF) compared with the vehicle control group / increase of left ventricular fractional shortening (FS) compared with the vehicle control group: day 1; for increase of left ventricular ejection fraction (LVEF) / increase of left ventricular fractional shortening (FS): day 7
From the text: This study aimed to evaluate the pharmacodynamic effect of the compound of formula (I) in a C57 BL/6 mouse model of myocardial ischemia.
After the animals had acclimated to the facility for one week, they were divided into four groups based on their body weights on the day before surgery, with 6 animals in the sham group (Sham) and 8 animals in the model group (MI). On the next day, the animals underwent myocardial ischemia surgery for modeling (the mice in the Sham group only underwent thoracotomy and threading without ligation). The model was established by ligation of the left anterior descending coronary artery (LAD). After model establishment, the mice were administered penicillin (20,000 units/mouse, i.m.) for 3 days, and disinfected to prevent infection.
Each group of animals was administered the corresponding compounds one hour before surgery. The control group (Vehicle) was administered the vehicle: 5% DMSO+45% PEG400+50% H2O (1% CMC-Na). The experimental groups were administered by oral gavage at doses of 4 mg/kg and 20 mg/kg, respectively, twice daily for 28 consecutive days. The body weights of the animals were monitored daily after administration, and echocardiographic imaging indicators were measured on days 1, 7 and 28. The primary indicators of echocardiographic evaluation were left ventricular fractional shortening (FS) and left ventricular ejection fraction (LVEF). After the echocardiographic measurement on day 28, heart tissues were collected in a tissue fixative for pathological analysis by Masson's trichrome staining.

[4] = test system: SD rat model of myocardial ischemia; test: Rat myocardial ischemia model (LAD ligation), echocardiography and Masson staining; type: in vivo; conditions: rats; for reduction of the degree of fibrosis compared with the vehicle control group: Masson staining
Protocol: This study aimed to evaluate the pharmacodynamic effect of the compound of formula (I) in a SD rat model of myocardial ischemia.
After the animals had acclimated to the facility for one week, the model was established by ligation of the left anterior descending coronary artery (LAD). After model establishment, the rats were administered penicillin (80,000 units/rat, i.m.) for 3 days, and disinfected to prevent infection.
One day after model establishment, the modeled animals were randomly divided into 4 groups according to the baseline body weight and echocardiographic imaging indicators, with 4 animals in each sham group (Sham) and 6 animals in each myocardial infarction model group (MI), and drug administration was then initiated. The control group was given the blank vehicle: 5% DMSO + 45% PEG400 + 50% H2O (1% CMC-Na). The experimental groups were administered by oral gavage at doses of 30 mg/kg and 75 mg/kg, respectively, twice daily for 28 consecutive days. The body weights of the animals were monitored daily after administration, and echocardiographic imaging indicators were measured on days 7 and 28. The primary indicators of echocardiographic evaluation were left ventricular fractional shortening (FS) and left ventricular ejection fraction (LVEF). After the echocardiographic measurement on day 28, heart tissues were collected in a tissue fixative for pathological analysis by Masson's trichrome staining.

[5] = 30mpk oral gavage twice daily, 7th day
[6] = 30mpk oral gavage twice daily, day 28
[7] = 75mpk oral gavage twice daily, 7th day
[8] = 75mpk oral gavage twice daily, day 28

With COc1ccc2c3c(cnc2n1)COC(=O)N3Cc1c(F)cc(S(N)(=O)=O)cc1F [Compound of Formula (I), 3,5-difluoro-4-((8-methoxy-2-oxo-2H-[1,3]oxazino[5,4-c][1,8]naphthyridin-1(4H)-yl)methyl)benzenesulfonamide] the IC50 (hENPP1 enzyme) was 0.05 nM, the clearance ([1]; 2 mg/kg, IV, 2mpk) was 3.2 mL/min/kg and the half-life ([1]; 2 mg/kg, IV, 2mpk) was 5.35 h. The AUC(0-t) ([1]; 2 mg/kg, IV, 2mpk) was 10000 ng·h/mL, the Vd ([1]; 2 mg/kg, IV, 2mpk, read-out: Vss) was 1.08 L/kg and the Cmax ([1]; 10 mg/kg, PO, 10mpk) was 8080 ng/mL. It also gave a Tmax ([1]; 10 mg/kg, PO, 10mpk) of 2 h, a half-life ([1]; 10 mg/kg, PO, 10mpk) of 3.5 h and an AUC(0-t) ([1]; 10 mg/kg, PO, 10mpk) of 47800 ng·h/mL. The “effect on the body weight of the mice” value ([2]; 16 days) was “no inhibitory effect on the body weight”, the TGI ([2]; after administration for 16 days, p<0.05 vs control group) was 43.4% and the “reduction of the degree of fibrosis compared with the vehicle control group” value (shortened to “reduction of the degree of fibrosis”) ([3]; 4 mg/kg twice daily, 28 days) was 8.8%. The “reduction of the degree of fibrosis” value ([3]; 20 mg/kg twice daily, 28 days) was 9.6%, the “effect on body weight” value ([3]; 4 and 20 mg/kg twice daily, 28 days) was “without any significant effect on body weight” and the “increase of left ventricular ejection fraction (LVEF) compared with the vehicle control group” value ([3]; 4 mpk oral gavage twice daily) was 15%. The “increase of left ventricular fractional shortening (FS) compared with the vehicle control group” value ([3]; 4 mpk oral gavage twice daily) was 7%, the “increase of left ventricular ejection fraction (LVEF)” value ([3]; 4 mpk oral gavage twice daily) was 23.4% and the “increase of left ventricular fractional shortening (FS)” value ([3]; 4 mpk oral gavage twice daily) was 12.2%. The “increase of left ventricular ejection fraction (LVEF) compared with the vehicle control group” value ([3]; 20 mpk oral gavage twice daily) was 10%, the “increase of left ventricular fractional shortening (FS) compared with the vehicle control group” value ([3]; 20 mpk oral gavage twice daily) was 5% and the “increase of left ventricular ejection fraction (LVEF)” value ([3]; 20 mpk oral gavage twice daily) was 23.3%. For the same compound, the “increase of left ventricular fractional shortening (FS)” value ([3]; 20 mpk oral gavage twice daily) was 12.3%, the “LVEF and FS in the left ventricle” value ([3]; day 28, vehicle control group further deteriorated) was “further maintained the LVEF and FS” and the “reduction of the degree of fibrosis” value ([4]; 30 mg/kg twice daily, 28 days) was 5.2%. The “reduction of the degree of fibrosis” value ([4]; 75 mg/kg twice daily, 28 days) was 6.5%, the “effect on body weight” value ([4]; 30 and 75 mg/kg twice daily, 28 days) was “no significant effect on body weight” and the “increase of LVEF” value [4, 5] was 11.43%. For the same compound, the “increase of left ventricular fractional shortening (FS)” value [4, 5] was 9.73%, the “increase of LVEF” value [4, 6] was 18.75% and the “increase of left ventricular fractional shortening (FS)” value [4, 6] was 13.01%. The “increase of LVEF” value [4, 7] was 18.85%, the “increase of left ventricular fractional shortening (FS)” value [4, 7] was 12.62% and the “increase of LVEF” value [4, 8] was 23.8%. For the same compound, the “increase of left ventricular fractional shortening (FS)” value [4, 8] was 15.88%.
